The values that follow come from US12617777B2, “GPR84 antagonists and uses thereof” (Liminal BioSciences Limited, priority 2021, dated 2026).

The target in this assay is T1, human GPR84 receptor (Homo sapiens, UniProt Q9NQS5).
T1 construct: host or cells: HEK293, transient transfection
In words: Gαi biosensor BRET assay in HEK293 cells (antagonism of ZQ-16). It is filed as cell-based. To be noted: for IC50: HEK293 cells, antagonism of 200 nmol/L ZQ-16; for inhibition at 10 µM: HEK293, single concentration 10 μM (designated F); for inhibition at 25 µM: HEK293, single concentration 25 μM (designated I); for inhibition at 2 µM: HEK293, single concentration 2 μM (designated A). Summed up:
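HEK293 cells transiently expressing human GPR84, Gαi2-Rluc8, GFP10-Gγ2 and Gβ1, in Tyrode's buffer pH 7.5. Compounds preincubated 5 min at 37° C, then 200 nmol/L ZQ-16 for 5 min at room temperature; coelenterazine 400A 5 μmol/L. BRET2 acceptor/donor ratio, background- and vehicle-corrected net BRET.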
For orientation: Bioluminescence resonance energy transfer reports proximity on the nanometre scale.

T1 sequence (Q9NQS5 whole entry): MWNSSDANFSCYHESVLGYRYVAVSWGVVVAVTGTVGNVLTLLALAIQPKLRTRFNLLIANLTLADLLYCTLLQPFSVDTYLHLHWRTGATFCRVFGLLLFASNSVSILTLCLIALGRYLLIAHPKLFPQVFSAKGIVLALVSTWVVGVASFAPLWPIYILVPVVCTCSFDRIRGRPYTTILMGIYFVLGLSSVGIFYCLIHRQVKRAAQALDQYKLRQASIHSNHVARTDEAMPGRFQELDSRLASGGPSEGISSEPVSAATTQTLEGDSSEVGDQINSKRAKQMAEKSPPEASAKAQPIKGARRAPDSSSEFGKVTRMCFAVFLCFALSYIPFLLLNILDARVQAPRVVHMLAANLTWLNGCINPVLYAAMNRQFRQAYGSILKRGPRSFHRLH

The IC50 is the concentration that gives 50% inhibition. Higher therefore signals lower potency. Regarding `Cc1cc(C#CC2(O)CCCC2)ccc1-c1cn(CC2CCCCO2)nn1` (stereo not shown) [Compound I-210], the IC50 was in the range of 300 to 1000 nM. For orientation: inhibition means the change of the read-out against control, counted positive when it falls. Compound `C=C(c1cn(C[C@H]2CCCCO2)nn1)c1cccc(C#CC2CC2)c1C` [Compound I-742] registered an inhibition at 10 µM above 75%. Compound `Cc1cc(C#CCNC(=O)OC(C)C)cnc1-c1cn(CC2CCCCO2)nn1` (stereo not shown) [Compound I-570, isopropyl (3-(5-methyl-6-(1-((tetrahydro-2H-pyran-2-yl)methyl)-1H-1,2,3-triazol-4-yl)pyridin-3-yl)prop-2-yn-1-yl)carbamate] had an inhibition at 10 µM above 75% and an IC50 above 3000 nM.

`Cc1cc(C2CCN(Cc3ccccn3)CC2)cnc1Cc1cn(CC2CCCCO2)nn1` (stereo not shown) [Compound I-504] came in with an inhibition at 10 µM of at most 25%. As for `Cc1ccc(-c2ccc(-c3nnn(CC4CCCCO4)n3)cc2)cn1` (stereo not shown) [Compound I-2], the inhibition at 25 µM was at most 25%. Turning to `CC(C)Oc1cc(C#CC2CC2)cnc1-c1cn(C[C@H]2CCCCO2)nn1` [Compound I-659], the inhibition at 10 µM was above 75% and the IC50 is at most 300 nM.

In the case of `Cc1cc(F)c(C#CC2CC2)cc1-c1cn(CC2CCCCO2)nn1` (stereo not shown) [Compound I-249], the inhibition at 10 µM is 50 to 75%.

With `COc1ccc(C#CC2CC2)cc1-c1cn(CC2CCCCO2)nn1` (stereo not shown) [Compound I-125], the inhibition at 10 µM was at most 25%. In turn, `Cc1c(-c2ccc(C#CC3CC3)cc2)nnn1CC1CCCO1` (stereo not shown) [Compound I-115] yielded an inhibition at 10 µM of at most 25%.

`Cc1cc(C#CCn2cc(C3CC3)nn2)ccc1-c1cn(CC2CCCCO2)nn1` (stereo not shown) [Compound I-645] returned an inhibition at 10 µM above 75%. With `O=C(O)c1cnc(-c2cn(CC3OCC4(CC4)CO3)nn2)c(OC2CC2)c1` [Compound I-855], the inhibition at 2 µM is above 75%. Consider `Cc1cc(N2CC3(CCCN3c3ccccn3)C2)ccc1-c1cn(CC2CCCCO2)nn1` (stereo not shown) [Compound I-623], for which the inhibition at 10 µM is 50 to 75%. `COc1ccc(Cl)c(N(C)c2cn(CC3OCC(C)(C)CO3)nn2)c1` [Compound I-813] gave an inhibition at 10 µM above 75%. Regarding `Cc1cc(C2CCCN(Cc3ccccn3)C2)ccc1-c1cn(CC2CCCCO2)nn1` (stereo not shown) [Compound I-546], the inhibition at 10 µM fell in the range of 50 to 75%. On the same count and under the same terms, in the case of `Cc1cc(N2CC3(CCCN3)C2)ccc1-c1cn(CC2CCCCO2)nn1` (stereo not shown) [Compound I-147] it was at most 25%. Turning to `CN(C)c1cc(N2CC(C)(CO)C2)ccc1-c1cn(CC2CC3(CC3)CO2)nn1` (stereo not shown) [Compound I-707], the inhibition at 10 µM was above 75% and the IC50 was at most 300 nM. As for `CC(c1cccc(C#CCN2CC(C)(C)C2)c1)c1cn(CC2CCCCO2)nn1` (stereo not shown) [Compound I-425], the inhibition at 10 µM lay in the range of 25 to 50%. The compound `Cc1cc(C#CC2CC2)ccc1-c1cn(CC23CC(C)(CO2)C3)nn1` [Compound I-556] gave an inhibition at 2 µM of at most 25%. In the case of `CC1(C)COC(Cn2cc(-c3ncc(N4CC(C)(CO)C4)cc3OC3CC3)nn2)OC1` [Compound I-703], the inhibition at 10 µM was above 75% and the IC50 was in the range of 300 to 1000 nM.

Turning to `Cc1cc(C#CC2CC2)ccc1-c1cn(CC2OCC(F)(F)CO2)nn1` [Compound I-670], the inhibition at 10 µM was in the range of 50 to 75%.

The compound `CN(C)c1cc(C#CC(C)(C)O)ccc1-c1cn(CC2OCC(C)(C)CO2)nn1` [Compound I-719] yielded an inhibition at 10 µM above 75% and an IC50 of 1000 to 3000 nM. As to `CN(C)c1cc(C#CCNc2ccccc2)ccc1-c1cn(CC2CCCCO2)nn1` (stereo not shown) [Compound I-203], the inhibition at 2 µM was above 75% and the IC50 lay in the range of 1000 to 3000 nM.

As for `CC1(C)COC(Cn2cc(-c3ncc(C#CCN4CC(C)(C)C4)cc3Cl)nn2)OC1` [Compound I-777], the IC50 was in the range of 1000 to 3000 nM. Take `Cc1cc(N2CCC3(CC2)CN(Cc2ccccn2)C3)ccc1-c1cn(CC2CCCCO2)nn1` (stereo not shown) [Compound I-521]: the inhibition at 10 µM was at most 25%. Take `CN(C)c1cc(N2CC(C)(CO)C2)ccc1-c1cn(CC2OCC(F)(F)CO2)nn1` [Compound I-729]: the inhibition at 10 µM was above 75%. In the case of `CC1(C)COC(Cn2cc(Oc3ccccc3)nn2)OC1` [Compound I-743, 1-((5,5-dimethyl-1,3-dioxan-2-yl)methyl)-4-phenoxy-1H-1,2,3-triazole], the inhibition at 10 µM was at most 25%. The compound `Cc1c(-c2cn(CC3CCCCO3)nn2)ccc(C#CC2CC2)c1F` (stereo not shown) [Compound I-505] showed an inhibition at 2 µM of at most 25%. `C(#CC1CC1)c1cccc(-c2cnn(CC3CCCCO3)c2)c1` (stereo not shown) [Compound I-320]: the inhibition at 25 µM is at most 25%. Take `CN(C)c1cc(C#CC2CC2)ccc1-c1cn(CC2CCOCC2)nn1` [Compound I-200]: the inhibition at 10 µM was in the range of 25 to 50%. Consider `Cc1cc(C#CC2CC(F)(F)C2)ccc1-c1cn(CC2OCC(C)(C)CO2)nn1` [Compound I-662], for which the inhibition at 10 µM is above 75% and the IC50 is above 3000 nM.

Regarding `COCC#Cc1cnc(-c2cn(CC3OCC(C)(C)CO3)nn2)c(OC2CC2)c1` [Compound I-757], the inhibition at 2 µM was above 75% and the IC50 was at most 300 nM.

For `Cc1cc(N2CC(C)(C#N)C2)ccc1-c1cn(CC2CCCCO2)nn1` (stereo not shown) [Compound I-495], the inhibition at 10 µM fell in the range of 25 to 50%. In turn, `Cc1cc(C#CC2CC2)ccc1-c1cn(CC2CNC(=O)O2)nn1` (stereo not shown) [Compound I-458] returned an inhibition at 10 µM of at most 25%. The compound `Cc1cc(N2CC(C)(CO)C2)c(F)cc1-c1cn(C[C@@H]2CCCCO2)nn1` [Compound I-805] displayed an inhibition at 2 µM above 75%.

With `Cc1cc(NC(=O)c2ccccc2)ccc1-c1cn(CC2CCCCO2)nn1` (stereo not shown) [Compound I-483], the inhibition at 10 µM was at most 25%. `CCc1cc(C#CCN(C)C2CC2)ccc1-c1cn(CC2OCC(C)(C)CO2)nn1` [Compound I-857] had an inhibition at 10 µM of at most 25%. Compound `Cc1c(C(C)c2cccc(C#CC3CC3)c2)nnn1CC1CCCCO1` (stereo not shown) [Compound I-624] yielded an inhibition at 10 µM of at most 25%. On to `CC1(C)COC(Cn2cc(-c3ncc(C#CC4CC4)cc3C(F)F)nn2)OC1` [Compound I-736], for which the inhibition at 10 µM is at most 25%. On the same count and under the same terms, in the case of `Cc1cc(CO)ccc1-c1cn(CC2CCCCO2)nn1` (stereo not shown) [Compound I-468] it was 25 to 50%; in that of `CNC(C)(C)COc1ccc(-c2cn(CC3CCCCO3)nn2)c(C)c1` (stereo not shown) [Compound I-288], 25 to 50%; in that of `COC(C)Cn1cc(-c2ccc(C#CC3CC3)cc2C)nn1` (stereo not shown) [Compound I-132], 25 to 50%. Compound `CN(c1ccc(C#N)cc1)c1cn(CC2OCC(C)(C)CO2)nn1` [Compound I-793, 4-((1-((5,5-dimethyl-1,3-dioxan-2-yl)methyl)-1H-1,2,3-triazol-4-yl)(methyl)amino)benzonitrile] showed an inhibition at 2 µM above 75%. Turning to `Cn1cc(-c2ccc(C#CC3CC3)cc2)nc1CC1CCCCO1` (stereo not shown) [Compound I-337], the inhibition at 5 µM (HEK293, single concentration 5 μM (designated D)) is at most 25%. Compound `Cc1ccc(C#CC2CC2)cc1Cc1cn(C[C@H]2CCCCO2)nn1` [Compound I-587] returned an inhibition at 10 µM of 50 to 75% and an IC50 of 300 to 1000 nM.

For the compound `CN(C)c1cc(N2CC(C)(CO)C2)ccc1-c1cn(CC2OCC(C)(C)CO2)nn1` [Compound I-654], the inhibition at 10 µM is above 75% and the IC50 is at most 300 nM. As for `COC(c1cn(CC2CCCCO2)nn1)c1c(C)ccc(C#CC2CC2)c1F` (stereo not shown) [Compound I-656], the inhibition at 10 µM was above 75% and the IC50 was 300 to 1000 nM.

The compound `Cc1cc(C#CC2CC2)cnc1-c1cn(CC2OCC3(CCC3)CO2)nn1` [Compound I-840] gave an inhibition at 2 µM above 75%.
